# EP0821954A1, “Method for treating mental retardation” (ELI LILLY AND COMPANY, priority 1996, dated 1998)
# Experiments:
# m4 receptors = m4 receptors (Homo sapiens, UniProt P08173); assay type: cell-based; conditions: CHO m4 cells treated with pertussis toxin
# 5HT2C = target: T1, 5HT2C (Homo sapiens, UniProt P28335); experiment: 5HT2C receptor affinity; assay type: binding; conditions: 5HT2C receptor subtype
# T1 sequence (P28335 33-458): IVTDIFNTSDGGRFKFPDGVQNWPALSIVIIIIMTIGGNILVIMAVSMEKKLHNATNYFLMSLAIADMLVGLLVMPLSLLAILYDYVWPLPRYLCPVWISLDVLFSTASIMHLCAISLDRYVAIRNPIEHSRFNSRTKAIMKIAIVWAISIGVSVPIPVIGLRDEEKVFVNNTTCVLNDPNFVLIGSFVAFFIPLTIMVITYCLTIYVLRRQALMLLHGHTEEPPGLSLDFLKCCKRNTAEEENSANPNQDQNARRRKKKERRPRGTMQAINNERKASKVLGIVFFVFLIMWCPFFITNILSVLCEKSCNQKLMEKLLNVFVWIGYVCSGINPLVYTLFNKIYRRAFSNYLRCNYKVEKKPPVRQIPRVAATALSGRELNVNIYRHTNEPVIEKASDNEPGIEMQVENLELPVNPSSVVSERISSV
# [1] = target: muscarinic cholinergic receptors; experiment: 3H-oxotremorine-M binding study; conditions: inhibition of binding of 3H-oxotremorine-M; read-out: inhibition costant (Ki)
# Sequence of m4 receptors (P08173 whole entry): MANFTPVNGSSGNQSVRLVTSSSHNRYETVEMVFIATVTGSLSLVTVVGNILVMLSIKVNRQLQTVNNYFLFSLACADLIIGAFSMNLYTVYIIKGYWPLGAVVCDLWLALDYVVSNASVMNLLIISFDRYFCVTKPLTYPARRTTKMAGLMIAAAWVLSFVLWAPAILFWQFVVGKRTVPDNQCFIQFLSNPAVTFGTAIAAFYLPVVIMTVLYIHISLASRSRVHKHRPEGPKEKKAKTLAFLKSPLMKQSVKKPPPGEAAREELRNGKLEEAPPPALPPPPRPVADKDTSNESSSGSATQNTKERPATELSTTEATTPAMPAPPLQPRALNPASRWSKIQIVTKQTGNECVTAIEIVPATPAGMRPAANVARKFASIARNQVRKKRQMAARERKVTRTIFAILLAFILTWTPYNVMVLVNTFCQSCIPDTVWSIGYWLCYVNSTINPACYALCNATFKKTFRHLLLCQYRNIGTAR
smiles,measurement,setting,value
"CCCCCCOc1nsnc1C1=CCCN(C)C1 [Xanomeline, 3-(4-hexyloxy-1,2,5-thiadiazol-3-yl)-1,2,5,6-tetrahydro-1-methylpyridine]",formation of cAMP,m4 receptors,efficaciously and potently stimulated the formation of cAMP
same,Ki,5HT2C,120 nM
same,Ki,[1],2 nM
